The record followed here is ChEMBL document CHEMBL1201862, “PubChem BioAssay data set” (2004).

Among the test systems are DMS-273; U-251; HCT-15; HT-29; COLO 205; UO-31; SF-295; KM12; A549; EKVX; CAKI-1; NCI-H226; HCT-116; Malme-3M; HL-60; XF498; OVCAR-8; KM-20L2; HOP-92; SK-OV-3.
Holding throughout (experiment): NCI tumour cell line growth inhibition, 48 h

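Tested at 5 concentrations; 48 h exposure; 96-well plates; endpoints linearly interpolated, else capped at highest concentration. GI50 = concentration required for 50% inhibition of growth.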 Active and inactive are the calls of the source. Rule as the data show it: active = GI50 up to about 1.1 µM and inactive = higher.

Take `O=C(CC1Sc2ccccc2NC1=O)Nc1ccccc1[N+](=O)[O-]` (centres undefined): the GI50 in the assay with DMS-273 was > 100 µM (inactive); in the assay on U-251, > 100 µM (inactive); in the assay with HCT-15, above 100 µM; in the assay with HT-29 it was > 100 µM (inactive); in the assay with COLO 205 it was > 100 µM (inactive); with UO-31 it was > 100 µM (inactive). Also, the GI50 with SF-295, with KM12, with A549, with EKVX, in the assay with CAKI-1 and with NCI-H226 was > 100 µM (inactive) each time. Also, the GI50 with HCT-116, in the assay with Malme-3M, in the assay with HL-60, in the assay with XF498, in the assay with OVCAR-8 and in the assay with KM-20L2 was > 100 µM (inactive) in each case. Besides, the GI50 in the assay on HOP-92 and with SK-OV-3 was > 100 µM (inactive) each time.
Turning to `c1ccc([P+](Cc2csnn2)(c2ccccc2)c2ccccc2)cc1`, the GI50 in the assay with DMS-273 was > 100 µM (inactive); in the assay with U-251 it was > 100 µM (inactive); in the assay with HCT-15 it was above 100 µM; with HT-29 it was > 100 µM (inactive); in the assay with COLO 205, > 100 µM (inactive); in the assay with UO-31, > 100 µM (inactive). In addition, the GI50 in the assay with SF-295, with KM12, in the assay on A549, in the assay on EKVX, in the assay on CAKI-1 and in the assay with NCI-H226 was > 100 µM (inactive) throughout. Besides, the GI50 in the assay with HCT-116, in the assay on Malme-3M, in the assay with HL-60, in the assay on XF498, in the assay with OVCAR-8 and in the assay with KM-20L2 was > 100 µM (inactive) each time. The figures for the GI50 with HOP-92 and in the assay with SK-OV-3 were 80 µM (inactive) and > 100 µM (inactive), respectively.
Regarding `NCCCCCC(CCN)SCC1OC(n2cnc3c(N)ncnc32)C(O)C1O` (centres undefined), the GI50 in the assay with DMS-273 was 369 µM (inactive); in the assay on U-251, 687 µM (inactive); with HCT-15, above 946 µM; in the assay on HT-29, 569 µM (inactive); with COLO 205, > 798 µM (inactive); with UO-31 it was 394 µM (inactive). Further, the GI50 was 469 µM (inactive) with SF-295; 416 µM (inactive) in the assay with KM12; > 1500 µM (inactive) with A549; > 555 µM (inactive) in the assay with EKVX; 411 µM (inactive) in the assay on CAKI-1; 589 µM (inactive) in the assay with NCI-H226. The GI50 is 233 µM (inactive) with HCT-116; > 1280 µM (inactive) in the assay with Malme-3M; 519 µM (inactive) in the assay on HL-60; > 15 µM (inactive) in the assay with XF498; > 708 µM (inactive) in the assay with OVCAR-8; 482 µM (inactive) with KM-20L2. Besides, the GI50 in the assay on HOP-92 is > 618 µM (inactive); with SK-OV-3 it was 927 µM (inactive).
Turning to `C=C1C2=C(CCCC2)C(=O)OC12CCCCC2`, the GI50 is 51.4 µM (inactive) in the assay with DMS-273; 73.6 µM (inactive) in the assay with U-251; 60.1 µM in the assay on HCT-15; 59.4 µM (inactive) in the assay with HT-29; 51.2 µM (inactive) in the assay with COLO 205; 35.1 µM (inactive) in the assay on UO-31. In addition, the GI50 in the assay on SF-295 is 57.7 µM (inactive); in the assay with KM12 it was 85.5 µM (inactive); in the assay on A549, 49.3 µM (inactive); in the assay on EKVX, 52.1 µM (inactive); in the assay with NCI-H226, 93.8 µM (inactive); in the assay on HCT-116, 47.1 µM (inactive). The GI50 in the assay with Malme-3M was 51.3 µM (inactive); in the assay with HL-60 it was 27.1 µM (inactive); in the assay with XF498 it was 97.5 µM (inactive); with OVCAR-8 it was > 100 µM (inactive); in the assay with KM-20L2, > 100 µM (inactive); with HOP-92, 19.5 µM (inactive). The GI50 in the assay on SK-OV-3 was > 100 µM (inactive).
In the case of `Cc1ccc(N2Cc3c(ccc4ccccc34)OP2(=S)N2CCCC2)cc1` (centres undefined), the GI50 in the assay on DMS-273 was > 100 µM (inactive); with U-251, > 100 µM (inactive); in the assay with HCT-15, above 100 µM; with HT-29, > 100 µM (inactive); with COLO 205 it was > 100 µM (inactive); with UO-31, 85.7 µM (inactive). Moreover, the GI50 was > 67.8 µM (inactive) in the assay with SF-295; > 100 µM (inactive) in the assay on KM12; > 100 µM (inactive) in the assay on A549; > 100 µM (inactive) with EKVX; > 100 µM (inactive) in the assay with CAKI-1; > 100 µM (inactive) in the assay with NCI-H226. Moreover, the GI50 with HCT-116, with Malme-3M, in the assay on HL-60, in the assay on XF498, with OVCAR-8 and in the assay with KM-20L2 was > 100 µM (inactive) each time. The GI50 in the assay with HOP-92 and with SK-OV-3 was > 100 µM (inactive) in each case.
Turning to `O=C(OCCO)C1CC2CC1C1(C2)OCCO1` (centres undefined), the GI50 with DMS-273, in the assay on U-251, in the assay with HT-29, in the assay with COLO 205, in the assay on UO-31 and in the assay on SF-295 was > 100 µM (inactive) each time. The GI50 in the assay with KM12, with A549, in the assay with EKVX, in the assay with CAKI-1, in the assay with NCI-H226 and in the assay with HCT-116 was > 100 µM (inactive) each time. In addition, the GI50 with Malme-3M, in the assay on HL-60, with XF498, with OVCAR-8, with KM-20L2 and in the assay on HOP-92 was > 100 µM (inactive) throughout. The GI50 in the assay on SK-OV-3 is > 100 µM (inactive).
Consider `Cc1nc2c(n1C)C(=O)c1nc(CBr)[nH]c(=O)c1C2=O`, for which the GI50 in the assay on DMS-273 was > 100 µM (inactive); with U-251, > 100 µM (inactive); with HCT-15, above 100 µM; in the assay on HT-29, 39.4 µM (inactive); in the assay on COLO 205, 51.5 µM (inactive); in the assay with UO-31, > 100 µM (inactive). Also, the GI50 was 0.938 µM (active) with SF-295; > 100 µM (inactive) in the assay with A549; 24.4 µM (inactive) in the assay with EKVX; > 100 µM (inactive) in the assay on HCT-116; 38.7 µM (inactive) in the assay with HL-60; > 10 µM (inactive) with XF498. The GI50 in the assay on OVCAR-8 was > 100 µM (inactive); in the assay with KM-20L2, > 100 µM (inactive); with HOP-92 it was > 100 µM (inactive); with SK-OV-3, 75.7 µM (inactive).
For `COc1ccccc1NC(=O)C(=O)C(C(=O)c1ccccc1F)C1OC(=O)c2ccccc21` (centres undefined), the GI50 in the assay on DMS-273 is 23.9 µM (inactive); with U-251, 14.3 µM (inactive); with HCT-15, 25 µM; with HT-29, 23.9 µM (inactive); with COLO 205 it was 19.2 µM (inactive); in the assay with UO-31 it was 32.4 µM (inactive). For the same compound, the GI50 was 43.1 µM (inactive) in the assay on SF-295; 30.1 µM (inactive) with KM12; 45.3 µM (inactive) in the assay with A549; 27.9 µM (inactive) in the assay on EKVX; 34.5 µM (inactive) in the assay with CAKI-1; 15.6 µM (inactive) in the assay on NCI-H226. Also, the GI50 is 22 µM (inactive) in the assay on HCT-116; 20.3 µM (inactive) in the assay with HL-60; 14.1 µM (inactive) with XF498; 19.9 µM (inactive) in the assay on OVCAR-8; 24.9 µM (inactive) with KM-20L2; 42.6 µM (inactive) with HOP-92. The GI50 in the assay on SK-OV-3 was 35.6 µM (inactive).
As to `O=NN(CC1(O)OCC(O)C(O)C1O)C(Cc1c[nH]c2ccccc12)C(=O)O` (centres undefined), the GI50 in the assay on DMS-273 is > 100 µM (inactive); in the assay with U-251, > 100 µM (inactive); in the assay with HT-29 it was > 100 µM (inactive); with COLO 205 it was > 100 µM (inactive); in the assay with UO-31 it was > 10 µM (inactive); in the assay with KM12, > 100 µM (inactive). The GI50 in the assay on A549, in the assay with EKVX, in the assay with HCT-116, with Malme-3M, in the assay with HL-60 and in the assay with XF498 was > 100 µM (inactive) in each case. In addition, the GI50 with OVCAR-8, in the assay with KM-20L2, with HOP-92 and in the assay on SK-OV-3 was > 100 µM (inactive) in each case.
Turning to `c1ccc2c(NCCCCCCCCNc3cccc4ccccc34)cccc2c1`, the GI50 with DMS-273 is 29.6 µM (inactive); in the assay on U-251, 63.2 µM (inactive); in the assay on HCT-15, 25.8 µM; in the assay on HT-29, 32.4 µM (inactive); in the assay on COLO 205, 18.6 µM (inactive); in the assay with UO-31, 26.2 µM (inactive). For the same compound, the GI50 was > 100 µM (inactive) in the assay with SF-295; > 100 µM (inactive) in the assay with KM12; > 100 µM (inactive) in the assay on A549; > 10 µM (inactive) in the assay with EKVX; 19.7 µM (inactive) with CAKI-1; 85.1 µM (inactive) in the assay on NCI-H226. The GI50 in the assay on HCT-116 was 19.8 µM (inactive); in the assay on Malme-3M, 22 µM (inactive); with HL-60, 22.7 µM (inactive); in the assay on XF498, 78.9 µM (inactive); with OVCAR-8, 24.5 µM (inactive); in the assay with KM-20L2, 25.2 µM (inactive). Besides, the GI50 in the assay on HOP-92 was 18.2 µM (inactive); in the assay with SK-OV-3, > 100 µM (inactive).
